Assay results: patent publication US6908935B2, “Calcium receptor modulating agents” (Amgen Inc., priority 2002, dated 2005)

Target: T1, human parathyroid cell Ca^2+ receptor (hPCaR) (Homo sapiens, UniProt P41180)
T1 construct: expressed in transfected cells
T1 sequence (P41180 20-1078): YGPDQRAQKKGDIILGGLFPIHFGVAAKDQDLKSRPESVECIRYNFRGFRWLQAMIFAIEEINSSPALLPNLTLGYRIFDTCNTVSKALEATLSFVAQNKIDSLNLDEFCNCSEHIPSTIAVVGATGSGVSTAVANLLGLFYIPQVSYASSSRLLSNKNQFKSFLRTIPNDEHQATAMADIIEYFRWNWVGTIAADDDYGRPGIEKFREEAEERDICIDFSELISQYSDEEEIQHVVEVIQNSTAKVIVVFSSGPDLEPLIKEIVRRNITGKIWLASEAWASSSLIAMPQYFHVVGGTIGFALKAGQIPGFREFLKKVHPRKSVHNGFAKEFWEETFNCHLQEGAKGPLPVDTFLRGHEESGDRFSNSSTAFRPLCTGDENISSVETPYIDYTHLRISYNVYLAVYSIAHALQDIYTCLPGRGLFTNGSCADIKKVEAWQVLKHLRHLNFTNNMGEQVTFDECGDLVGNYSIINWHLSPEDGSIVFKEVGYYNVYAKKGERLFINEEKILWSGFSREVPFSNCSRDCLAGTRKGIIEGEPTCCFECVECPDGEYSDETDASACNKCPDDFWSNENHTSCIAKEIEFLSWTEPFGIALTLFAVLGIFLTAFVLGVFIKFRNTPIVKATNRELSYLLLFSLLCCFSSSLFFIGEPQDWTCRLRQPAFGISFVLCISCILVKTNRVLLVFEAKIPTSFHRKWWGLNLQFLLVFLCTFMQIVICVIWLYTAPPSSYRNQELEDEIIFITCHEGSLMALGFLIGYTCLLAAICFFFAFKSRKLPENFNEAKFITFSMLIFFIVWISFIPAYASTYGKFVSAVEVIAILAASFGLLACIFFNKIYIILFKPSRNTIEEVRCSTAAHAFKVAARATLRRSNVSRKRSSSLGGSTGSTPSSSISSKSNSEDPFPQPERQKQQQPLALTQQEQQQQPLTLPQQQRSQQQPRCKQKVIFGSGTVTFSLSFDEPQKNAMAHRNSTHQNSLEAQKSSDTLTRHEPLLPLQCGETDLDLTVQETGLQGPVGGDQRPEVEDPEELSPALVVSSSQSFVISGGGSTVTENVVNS
Test: [Ca2+]i measurement with fluo-3 in HEK 293 4.0-7 cells stably transfected with hPCaR
Type: cell-based
Details: fluo-3 fluorescence (485/530 nm), effect on [Ca^2+]i
Procedure, shortened: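 Cytosolic [Ca2+] was read as fluo-3 fluorescence (ex 485/em 530 nm) after compound addition to washed cells. Cells were hPCaR-transfected HEK 293 clone 7, dye-loaded 30 min at 37 °C with 2 μM fluo-3 acetoxymethyl ester in HEPES-buffered saline pH 7.45 containing 1 mM CaCl2 and 0.5% BSA.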

EC50, ≤ 10 µM:
COc1ccc(-c2cc(CN[C@H](C)c3cccc(OC)c3)ccc2OC)nc1 [(1R)-N-((4-(methyloxy)-3-(5-(methyloxy)-2-pyridinyl)phenyl)methyl)-1-(3-(methyloxy)phenyl)ethanamine], COc1ccc(-c2cc(CN[C@H](C)c3ccccc3)ccc2OC)nc1 [(1R)-N-((4-(methyloxy)-3-(5-(methyloxy)-2-pyridinyl)phenyl)methyl)-1-phenylethanamine], COc1ccc(CN[C@H](C)c2cccc3ccccc23)cc1-c1nnc(C(F)(F)F)o1 [(1R)-N-((4-(methyloxy)-3-(5-(trifluoromethyl)-1,3,4-oxadiazol-2-yl)phenyl)methyl)-1-(1-naphthalenyl)ethanamine], COc1ccc(CN[C@H](C)c2ccccc2)cc1-c1nnc(C(F)(F)F)o1 [(1R)-N-((4-(methyloxy)-3-(5-(trifluoromethyl)-1,3,4-oxadiazol-2-yl)phenyl)methyl)-1-phenylethanamine], COc1ccc(CN[C@H](C)c2ccc(C)cc2)cc1-c1cncnc1 [(1R)-N-((4-(methyloxy)-3-(5-pyrimidinyl)phenyl)methyl)-1-(4-methylphenyl)ethanamine], COc1ccc(CN[C@H](C)c2ccccc2)cc1-c1cncnc1 [(1R)-N-((4-(methyloxy)-3-(5-pyrimidinyl)phenyl)methyl)-1-phenylethanamine], COc1ccc(CN[C@H](C)c2cccc3ccccc23)cc1-c1ccc(OCC(F)(F)F)nc1 [(1R)-N-((4-(methyloxy)-3-(6-((2,2,2-trifluoroethyl)oxy)-3-pyridinyl)phenyl)methyl)-1-(1-naphthalenyl)ethanamine], COc1ccc(CN[C@H](C)c2ccccc2)cc1-c1ccc(OCC(F)(F)F)nc1 [(1R)-N-((4-(methyloxy)-3-(6-((2,2,2-trifluoroethyl)oxy)-3-pyridinyl)phenyl)methyl)-1-phenylethanamine], COc1ccc(CN[C@H](C)c2cccc3ccccc23)cc1-c1ccc(OCCN2CCCC2)nc1 [(1R)-N-((4-(methyloxy)-3-(6-((2-(1-pyrrolidinyl)ethyl)oxy)-3-pyridinyl)phenyl)methyl)-1-(1-naphthalenyl)ethanamine], COc1ccc(CN[C@H](C)c2ccccc2)cc1-c1ccc(OCCN2CCCC2)nc1 [(1R)-N-((4-(methyloxy)-3-(6-((2-(1-pyrrolidinyl)ethyl)oxy)-3-pyridinyl)phenyl)methyl)-1-phenylethanamine], COCCOc1ccc(-c2cc(CN[C@H](C)c3ccccc3)ccc2OC)cn1 [(1R)-N-((4-(methyloxy)-3-(6-((2-(methyloxy)ethyl)oxy)-3-pyridinyl)phenyl)methyl)-1-phenylethanamine], COc1ccc(CN[C@H](C)c2ccccc2)cc1-c1ccc(OCC2CCCO2)nc1 (stereo partly drawn) [(1R)-N-((4-(methyloxy)-3-(6-((tetrahydro-2-furanylmethyl)oxy)-3-pyridinyl)phenyl)methyl)-1-phenylethanamine], COc1ccc(-c2cc(CN[C@H](C)c3ccc4ccccc4c3)ccc2OC)nn1 [(1R)-N-((4-(methyloxy)-3-(6-(methyloxy)-3-pyridazinyl)phenyl)methyl)-1-(2-naphthalenyl)ethanamine], COc1cccc([C@@H](C)NCc2ccc(OC)c(-c3ccc(OC)nn3)c2)c1 [(1R)-N-((4-(methyloxy)-3-(6-(methyloxy)-3-pyridazinyl)phenyl)methyl)-1-(3-(methyloxy)phenyl)ethanamine], COc1ccc([C@@H](C)NCc2ccc(OC)c(-c3ccc(OC)nn3)c2)cc1 [(1R)-N-((4-(methyloxy)-3-(6-(methyloxy)-3-pyridazinyl)phenyl)methyl)-1-(4-(methyloxy)phenyl)ethanamine], COc1ccc(-c2cc(CN[C@H](C)c3ccccc3)ccc2OC)nn1 [(1R)-N-((4-(methyloxy)-3-(6-(methyloxy)-3-pyridazinyl)phenyl)methyl)-1-phenylethanamine], COc1ccc(-c2cc(CN[C@H](C)c3cccc4ccccc34)ccc2OC)cn1 [(1R)-N-((4-(methyloxy)-3-(6-(methyloxy)-3-pyridinyl)phenyl)methyl)-1-(1-naphthalenyl)ethanamine], COc1cccc([C@@H](C)NCc2ccc(OC)c(-c3ccc(OC)nc3)c2)c1 [(1R)-N-((4-(methyloxy)-3-(6-(methyloxy)-3-pyridinyl)phenyl)methyl)-1-(3-(methyloxy)phenyl)ethanamine], COc1ccc(CN[C@H](C)c2ccccc2)cc1-c1ccc(C(F)(F)F)nc1 [(1R)-N-((4-(methyloxy)-3-(6-(trifluoromethyl)-3-pyridinyl)phenyl)methyl)-1-phenylethanamine], COc1ccc(CN[C@H](C)c2cccc3ccccc23)cc1-c1ccc(C)nc1 [(1R)-N-((4-(methyloxy)-3-(6-methyl-3-pyridinyl)phenyl)methyl)-1-(1-naphthalenyl)ethanamine], COc1ccc(CN[C@H](C)c2cccc3ccccc23)cc1-c1ccc2ncccc2c1 [(1R)-N-((4-(methyloxy)-3-(6-quinolinyl)phenyl)methyl)-1-(1-naphthalenyl)ethanamine], COc1ccc(CN[C@H](C)c2ccccc2)cc1-c1ccc2ncccc2c1 [(1R)-N-((4-(methyloxy)-3-(6-quinolinyl)phenyl)methyl)-1-phenylethanamine], COc1ccc(CN[C@H](C)c2cccc3ccccc23)cc1-c1ccc2nccnc2c1 [(1R)-N-((4-(methyloxy)-3-(6-quinoxalinyl)phenyl)methyl)-1-(1-naphthalenyl)ethanamine], COc1ccc(CN[C@H](C)c2ccccc2)cc1-c1ccc2nccnc2c1 [(1R)-N-((4-(methyloxy)-3-(6-quinoxalinyl)phenyl)methyl)-1-phenylethanamine], COc1cccc([C@@H](C)NCc2ccc(Cl)c(-c3cccnc3)c2)c1 [(1R)-N-((4-chloro-3-(3-pyridinyl)phenyl)methyl)-1-(3-(methyloxy)phenyl)ethanamine], C[C@@H](NCc1ccc(Cl)c(-c2ccc(OCC(F)(F)F)nc2)c1)c1cccc2ccccc12 [(1R)-N-((4-chloro-3-(6-((2,2,2-trifluoroethyl)oxy)-3-pyridinyl)phenyl)methyl)-1-(1-naphthalenyl)ethanamine], C[C@@H](NCc1ccc(C(F)(F)F)c(-c2ccc(C(F)(F)F)cc2)c1)c1cccc2ccccc12 [(1R)-N-((4′,6-bis(trifluoromethyl)-1,1′-biphenyl-3-yl)methyl)-1-(1-naphthalenyl)ethanamine], COc1cccc([C@@H](C)NCc2ccc(C(F)(F)F)c(-c3ccc(C(F)(F)F)cc3)c2)c1 [(1R)-N-((4′,6-bis(trifluoromethyl)-1,1′-biphenyl-3-yl)methyl)-1-(3-(methyloxy)phenyl)ethanamine], COc1cccc([C@@H](C)NCc2ccc(F)c(-c3ccc(F)cc3)c2)c1 [(1R)-N-((4′,6-difluoro-1,1′-biphenyl-3-yl)methyl)-1-(3-(methyloxy)phenyl)ethanamine], COc1ccc([C@@H](C)NCc2ccc(F)c(-c3ccc(F)cc3)c2)cc1 [(1R)-N-((4′,6-difluoro-1,1′-biphenyl-3-yl)methyl)-1-(4-(methyloxy)phenyl)ethanamine], COc1ccc(-c2cccc(CN[C@H](C)c3cccc4ccccc34)c2)cc1 [(1R)-N-((4′-(methyloxy)-1,1′-biphenyl-3-yl)methyl)-1-(1-naphthalenyl)ethanamine], COc1ccc(-c2cccc(CN[C@H](C)c3ccc4ccccc4c3)c2)cc1 [(1R)-N-((4′-(methyloxy)-1,1′-biphenyl-3-yl)methyl)-1-(2-naphthalenyl)ethanamine]
